Results: patent publication US20260258000A1, “THYMIDYLATE SYNTHASE INHIBITORS AND USES THEREOF” (University of Florida Research Foundation, Incorporated, priority 2021, published 2026)

Columns and labels:
[1] = system: Luc-CM disseminated tumors; experiment: Luc-CM disseminated xenograft tumor model; format: in vivo, NSG mice
Experimental: Luc-PANC-1 (5×106) and Luc-CM (0.5×106) cells were resuspended in 200 ul of PBS and injected subcutaneously (SQ) or intraperitonially (IP) to 6-8-week-old NSG mice respectively. Tumor bearing mice were imaged using Xenogen IVIS® Lumina Bioluminescence Imaging System (Perkin Elmer) every week after cell injection. At 4 weeks, animals were randomized based on slope of luciferase signal and treatment was initiated. […] For all animals body weight was recorded weekly and Luc-PANC-1 tumor volume was measured weekly with a caliper. For scheduled sacrifice experiments, animals were euthanized after 4 weeks of treatment. […] Harvested tumors were excised and weighted, and fixed in alcoholic formalin (67.5% Ethanol, 10% Formaldehyde 37%, 22.5% water) for pathology analysis. Tumor volume was calculated as [volume=0.52 (length×width2)].
From this stock, the exact volume needed for daily in vivo delivery was then formulated into 95% corn oil (Mazola) at 2 different concentrations: 1.25 mg/mi (formulation 1) and 3.125 mg/ml (formulation 2). To determine the volume of solution administered to the mice, 200 μl (maximum volume to be delivered in mice via IP or oral gavage) was divided by 25 g of mouse body weight. Therefore, 8 μl of formulation 1 or 2 multiplied by the weight of the mice were used to reach a dose of 10 or 25 mg/kg of body weight, respectively.
Prior to bioluminescence imaging the region where tumors were located was shaved. Mice were then anesthetized with 2.5% isoflurane in 02 then administered the D-luciferin substrate (150 mg/kg in PBS) by IP injection. Following the injection of the D-luciferin substrate mice were imaged using the Xenogen IVIS® Lumina Bioluminescence Imaging System (Perkin Elmer). The peak of luciferase photon flux was recorded 6 minutes after injection of the D-luciferin substrate. The total photon flux was analyzed and restricted to tumor ROI (region of interest) using Living Image v2.60.1 software (Imaging Systems).

[2] = system: H1048, CM, MIA PaCa-2, PANC-1 and Luc-PANC-1 cancer cell lines; experiment: Viability assay screen in a panel of cancer cell lines; format: cell-based; conditions: 10 uM, 72 hours (FIG. 8)
Experimental: Viability assay performed in a panel of cancer cell lines including H1048 (small cell lung cancer), CM (pancreatic neuroendocrine tumor), MIA PaCa-2 and PANC-1 (pancreatic ductal adenocarcinoma), Luc-PANC-1 (pancreatic ductal adenocarcinoma cells expressing firefly luciferase). Initial viability assay screens were performed with single drug concentration (10 μM) or DMSO control (0.25%). […] The threshold of 10 μM was selected since compounds showing under 50% viability at 10 μM would indicate greater cytotoxicity than disclosed TS inhibitor 5-FU and present a promising lead candidate for further study.
To identify potential TS small molecule inhibitors, molecular docking was used to computationally screen compounds with the ability to bind TS. The details of the procedure are presented in the Methods section. The top ranked 26 compounds were acquired and designated 1-A through 26-Z, then used to determine the cytotoxicity at a 10 uM concentration in several cancer cell lines. […] This initial computational screen provided a predictive model that allowed a preliminary assessment for possible drug candidates. Subsequent experiments were pursued to validate biological activity and to define mechanisms for TS inhibition.

## CCc1nc(N)nc(N)c1-c1ccc(N(C)Cc2ccccc2)c([N+](=O)[O-])c1 [Compound 19-S]
[1]; 25 mg/kg IP, 3 cycles
  body weight and behavior: did not show significant deviations in body weight or display adverse behavior
[1]; 25 mg/kg IP, 3 cycles, p=0.0032 vs vehicle
  tumor progression (abdominal bioluminescence photon flux): efficiently inhibited tumor progression
[1]; 25 mg/kg oral gavage
  body weight: no significant deviations in body weight
[2]
  cytotoxicity (viability): exhibited cytotoxicity in the 5 cell lines examined
